Literature values as cited in patent US20050214224A1, “Lipid formulations for spontaneous drug encapsulation” (Nektar Therapeutics, priority 2003, published 2005).

Settings: hydrated state; lipid excipient

hydrated liquid transition temperature [°C]	Compound
23.5	CCCCCCCCCCCCCC(=O)OC[C@H](COP(=O)([O-])OCC[N+](C)(C)C)OC(=O)CCCCCCCCCCCCC [DMPC, dimyristoylphosphatidylcholine]
42	CCCCCCCCCCCCCCCC(=O)OC[C@H](COP(=O)([O-])OCC[N+](C)(C)C)OC(=O)CCCCCCCCCCCCCCC [DPPC, dipalmitoylphosphatidylcholine]
